Some results are limits rather than exact numbers.

We go through one compound from ChEMBL document CHEMBL5113527, “First-in-Class Hydrazide-Based HDAC6 Selective Inhibitor with Potent Oral Anti-Inflammatory Activity by Attenuating NLRP3 Inflammasome Activation” (J Med Chem, 2022).

One data set deals with Histone deacetylase 3 (Homo sapiens, UniProt O15379). Put plainly: Inhibition of recombinant HDAC3 (unknown origin) using Boc-Lys(acetyl)-AMC as substrate preincubated for 1 hr followed by substrate addition and measured after 2 hrs by fluorescence based microplate reader analysis.
Histone deacetylase 3, sequence (O15379 whole entry): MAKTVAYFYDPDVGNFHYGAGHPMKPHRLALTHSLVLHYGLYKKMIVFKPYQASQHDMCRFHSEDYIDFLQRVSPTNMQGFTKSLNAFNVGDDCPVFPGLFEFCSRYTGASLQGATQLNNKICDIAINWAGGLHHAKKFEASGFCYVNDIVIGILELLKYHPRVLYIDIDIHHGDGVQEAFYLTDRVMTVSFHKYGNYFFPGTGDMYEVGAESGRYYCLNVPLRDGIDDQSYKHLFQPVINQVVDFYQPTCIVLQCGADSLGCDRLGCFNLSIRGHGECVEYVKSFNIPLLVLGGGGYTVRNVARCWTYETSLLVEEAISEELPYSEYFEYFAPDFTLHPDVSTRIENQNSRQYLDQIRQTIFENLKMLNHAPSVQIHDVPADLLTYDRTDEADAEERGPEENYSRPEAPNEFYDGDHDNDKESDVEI
The target in another data set is T1, Histone deacetylase 7 (Homo sapiens, UniProt Q8WUI4).
T1 sequence (Q8WUI4 whole entry): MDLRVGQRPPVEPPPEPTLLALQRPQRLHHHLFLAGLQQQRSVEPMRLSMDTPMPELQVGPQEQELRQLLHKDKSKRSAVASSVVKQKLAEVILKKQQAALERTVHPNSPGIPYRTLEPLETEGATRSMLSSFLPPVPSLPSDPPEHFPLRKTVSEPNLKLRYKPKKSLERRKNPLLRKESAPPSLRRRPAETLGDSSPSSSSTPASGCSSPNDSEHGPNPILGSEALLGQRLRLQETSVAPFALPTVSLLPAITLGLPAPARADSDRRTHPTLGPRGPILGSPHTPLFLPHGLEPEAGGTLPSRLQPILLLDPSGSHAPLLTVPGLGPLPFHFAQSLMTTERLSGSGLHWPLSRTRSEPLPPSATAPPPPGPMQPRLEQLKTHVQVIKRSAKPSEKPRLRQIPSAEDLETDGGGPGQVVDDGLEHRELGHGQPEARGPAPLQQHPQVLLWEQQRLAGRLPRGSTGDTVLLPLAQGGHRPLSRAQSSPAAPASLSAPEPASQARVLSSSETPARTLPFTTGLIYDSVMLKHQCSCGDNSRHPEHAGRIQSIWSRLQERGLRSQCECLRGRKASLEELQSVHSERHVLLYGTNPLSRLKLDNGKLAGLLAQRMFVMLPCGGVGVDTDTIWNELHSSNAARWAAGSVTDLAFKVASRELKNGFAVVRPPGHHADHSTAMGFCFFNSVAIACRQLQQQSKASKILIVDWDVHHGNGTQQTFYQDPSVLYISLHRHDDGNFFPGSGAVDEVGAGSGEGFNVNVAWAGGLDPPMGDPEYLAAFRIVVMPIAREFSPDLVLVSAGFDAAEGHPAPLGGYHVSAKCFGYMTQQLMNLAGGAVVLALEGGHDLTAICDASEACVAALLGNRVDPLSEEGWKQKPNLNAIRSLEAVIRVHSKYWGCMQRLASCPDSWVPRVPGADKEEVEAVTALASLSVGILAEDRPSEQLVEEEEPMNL
Kind of data set: Inhibition of recombinant HDAC7 (unknown origin) using Boc-Lys (trifluoroacetyl) AMC as substrate preincubated for 1 hr followed by substrate addition and measured after 2 hrs by fluorescence based microplate reader analysis.

The target of the next data set is T2, Histone deacetylase 8 (Homo sapiens, UniProt Q9BY41).
T2 sequence (Q9BY41 whole entry): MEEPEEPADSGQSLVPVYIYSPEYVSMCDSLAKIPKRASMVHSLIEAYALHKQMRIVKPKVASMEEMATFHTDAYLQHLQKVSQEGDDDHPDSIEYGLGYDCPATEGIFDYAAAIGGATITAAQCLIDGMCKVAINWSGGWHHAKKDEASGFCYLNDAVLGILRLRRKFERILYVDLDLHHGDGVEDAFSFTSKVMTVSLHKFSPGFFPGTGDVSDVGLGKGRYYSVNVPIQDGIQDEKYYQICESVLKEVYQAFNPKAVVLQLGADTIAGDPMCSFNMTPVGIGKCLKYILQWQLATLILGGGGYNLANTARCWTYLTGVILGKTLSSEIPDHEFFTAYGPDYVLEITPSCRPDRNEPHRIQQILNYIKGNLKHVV
Put plainly: Inhibition of recombinant HDAC8 (unknown origin) using Boc-Lys (trifluoroacetyl) AMC as substrate preincubated for 1 hr followed by substrate addition and measured after 2 hrs by fluorescence based microplate reader analysis.

A short description of data set [1]: Inhibition of HDAC11(unknown origin) preincubated for 1 hr followed by substrate addition and measured after 2 hrs by fluorescence based microplate reader analysis. Also on record: species or system Homo sapiens.
The nature of data set [2]: Cmax in CD-1 mouse at 5 mg/kg, iv measured after 0.083 to 24 hrs by LC-MS/MS analysis. Format: ADME, organism-based. The arrangement: dose 5 mg/kg, time 0.083-24 hrs, route iv. Conditions: in vivo.
A short description of data set [3]: Brain concentration in CD-1 mouse at 20 mg/kg measured after 2 hrs by LC-MS/MS analysis. Format: ADME, organism-based. The note with it: read-out: Ct.
Data set [4] is described as follows: Ratio of drug concentration in brain to plasma of CD-1 mouse measured after 4 hrs by LC-MS/MS analysis. The note with it: read-out: BPR. It counts as ADME.
The target in data set [5] is T3, Protein deacetylase HDAC6 (Homo sapiens, UniProt Q9UBN7).
T3 sequence (Q9UBN7 whole entry): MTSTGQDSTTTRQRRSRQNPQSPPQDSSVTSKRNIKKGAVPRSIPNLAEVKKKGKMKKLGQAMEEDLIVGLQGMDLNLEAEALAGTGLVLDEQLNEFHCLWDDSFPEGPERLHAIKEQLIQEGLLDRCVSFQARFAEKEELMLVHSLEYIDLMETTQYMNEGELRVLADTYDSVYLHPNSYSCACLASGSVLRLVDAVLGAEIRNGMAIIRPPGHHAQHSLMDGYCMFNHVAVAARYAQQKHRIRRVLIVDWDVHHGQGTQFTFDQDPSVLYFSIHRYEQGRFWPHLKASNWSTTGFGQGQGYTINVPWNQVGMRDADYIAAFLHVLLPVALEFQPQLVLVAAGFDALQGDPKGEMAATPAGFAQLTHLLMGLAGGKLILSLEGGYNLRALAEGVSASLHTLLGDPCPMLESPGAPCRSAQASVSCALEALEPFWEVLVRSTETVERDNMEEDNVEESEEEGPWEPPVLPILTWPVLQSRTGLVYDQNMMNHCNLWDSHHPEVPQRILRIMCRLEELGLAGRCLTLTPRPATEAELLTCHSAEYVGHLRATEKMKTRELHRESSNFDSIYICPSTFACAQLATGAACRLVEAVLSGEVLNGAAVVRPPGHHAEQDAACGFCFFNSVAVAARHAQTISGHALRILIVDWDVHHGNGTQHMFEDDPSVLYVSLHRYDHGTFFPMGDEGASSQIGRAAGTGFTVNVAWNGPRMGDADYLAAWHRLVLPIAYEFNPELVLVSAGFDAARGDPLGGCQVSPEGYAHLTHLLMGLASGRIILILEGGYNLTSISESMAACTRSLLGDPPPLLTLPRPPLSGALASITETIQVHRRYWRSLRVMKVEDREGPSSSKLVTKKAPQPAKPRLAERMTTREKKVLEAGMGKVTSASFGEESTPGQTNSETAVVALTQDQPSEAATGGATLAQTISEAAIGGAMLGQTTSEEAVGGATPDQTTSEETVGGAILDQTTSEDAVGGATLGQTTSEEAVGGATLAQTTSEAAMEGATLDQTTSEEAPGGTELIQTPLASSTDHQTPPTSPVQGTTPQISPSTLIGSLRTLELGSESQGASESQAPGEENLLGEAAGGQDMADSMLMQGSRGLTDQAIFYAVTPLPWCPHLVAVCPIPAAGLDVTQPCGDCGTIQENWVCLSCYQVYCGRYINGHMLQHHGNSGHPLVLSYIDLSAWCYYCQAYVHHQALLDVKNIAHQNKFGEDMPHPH
Put plainly: Binding affinity to recombinant HDAC6 (unknown origin) assessed as inhibition constant using Boc-Lys(acetyl)-AMC as substrate preincubated for 1 hr followed by substrate addition and measured after 2 hrs by fluorescence based microplate reader analysis.

`CCNNC(=O)c1ccc(CN2c3ccccc3C=Cc3ccncc32)cc1`: the IC50 was 1030 nM at Histone deacetylase 3, > 5000 nM at Histone deacetylase 7, > 5000 nM on Histone deacetylase 8 and > 5000 nM in data set [1]. The highest concentration (Cmax) in data set [2] is 4600 ng/mL. Also, the concentration at 2 h in data set [3] was 3280 ng/mL. Moreover, in data set [4], the Kp at 4 h came to 1.51. In addition, the Ki in data set [5] came to 3 nM.
